Activity calls are given as the source filed them. No rule for the calls is given here.
Tested on: CCRIS mutagenicity, Ames/micronucleus/aberration tests
Assay: CCRIS mutagenicity studies

## C1O[C@@H]1[C@@H]1CO1
Test System: AMES SALMONELLA TYPHIMURIUM, Strain/Indicator: TA1535, Metabolic Activation: RAT, LIVER, S-9, Method: PREINCUBATION
  mutagenic call: active; positive
Test System: AMES SALMONELLA TYPHIMURIUM, Strain/Indicator: TA1535, Metabolic Activation: RAT, LIVER, S-9, Method: STANDARD PLATE
  mutagenic call: active; positive
Test System: AMES SALMONELLA TYPHIMURIUM, Strain/Indicator: TA1537, Metabolic Activation: HAMSTER, LIVER, S-9, AROCLOR 1254, Method: PREINCUBATION
  mutagenic call: inactive; negative
Test System: AMES SALMONELLA TYPHIMURIUM, Strain/Indicator: TA1537, Metabolic Activation: HAMSTER, LIVER, S-9, AROCLOR 1254, Method: STANDARD PLATE
  mutagenic call: inactive; negative
Test System: AMES SALMONELLA TYPHIMURIUM, Strain/Indicator: TA1537, Metabolic Activation: HAMSTER, LIVER, S-9, Method: PREINCUBATION
  mutagenic call: inactive; negative
Test System: AMES SALMONELLA TYPHIMURIUM, Strain/Indicator: TA1537, Metabolic Activation: HAMSTER, LIVER, S-9, Method: STANDARD PLATE
  mutagenic call: inactive; negative
Test System: AMES SALMONELLA TYPHIMURIUM, Strain/Indicator: TA1537, Metabolic Activation: MOUSE, LIVER, S-9, AROCLOR 1254, Method: PREINCUBATION
  mutagenic call: inactive; negative
Test System: AMES SALMONELLA TYPHIMURIUM, Strain/Indicator: TA1537, Metabolic Activation: MOUSE, LIVER, S-9, AROCLOR 1254, Method: STANDARD PLATE
  mutagenic call: inactive; negative
Test System: AMES SALMONELLA TYPHIMURIUM, Strain/Indicator: TA1537, Metabolic Activation: MOUSE, LIVER, S-9, Method: PREINCUBATION
  mutagenic call: inactive; negative
Test System: AMES SALMONELLA TYPHIMURIUM, Strain/Indicator: TA1537, Metabolic Activation: MOUSE, LIVER, S-9, Method: STANDARD PLATE
  mutagenic call: inactive; negative
Test System: AMES SALMONELLA TYPHIMURIUM, Strain/Indicator: TA1537, Metabolic Activation: NONE, Method: PREINCUBATION
  mutagenic call: inactive; negative
Test System: AMES SALMONELLA TYPHIMURIUM, Strain/Indicator: TA1537, Metabolic Activation: NONE, Method: STANDARD PLATE
  mutagenic call: inactive; negative
Test System: AMES SALMONELLA TYPHIMURIUM, Strain/Indicator: TA1537, Metabolic Activation: RAT, LIVER, S-9, AROCLOR 1254, Method: PREINCUBATION
  mutagenic call: inactive; negative
Test System: AMES SALMONELLA TYPHIMURIUM, Strain/Indicator: TA1537, Metabolic Activation: RAT, LIVER, S-9, Method: PREINCUBATION
  mutagenic call: inactive; negative
Test System: AMES SALMONELLA TYPHIMURIUM, Strain/Indicator: TA1537, Metabolic Activation: RAT, LIVER, S-9, Method: STANDARD PLATE
  mutagenic call: inactive; negative
Test System: AMES SALMONELLA TYPHIMURIUM, Strain/Indicator: TA1538, Metabolic Activation: HAMSTER, LIVER, S-9, AROCLOR 1254, Method: PREINCUBATION
  mutagenic call: inactive; negative
Test System: AMES SALMONELLA TYPHIMURIUM, Strain/Indicator: TA1538, Metabolic Activation: HAMSTER, LIVER, S-9, AROCLOR 1254, Method: STANDARD PLATE
  mutagenic call: inactive; negative
Test System: AMES SALMONELLA TYPHIMURIUM, Strain/Indicator: TA1538, Metabolic Activation: HAMSTER, LIVER, S-9, Method: PREINCUBATION
  mutagenic call: inactive; negative
Test System: AMES SALMONELLA TYPHIMURIUM, Strain/Indicator: TA1538, Metabolic Activation: HAMSTER, LIVER, S-9, Method: STANDARD PLATE
  mutagenic call: inactive; negative
Test System: AMES SALMONELLA TYPHIMURIUM, Strain/Indicator: TA1538, Metabolic Activation: MOUSE, LIVER, S-9, AROCLOR 1254, Method: PREINCUBATION
  mutagenic call: inactive; negative
Test System: AMES SALMONELLA TYPHIMURIUM, Strain/Indicator: TA1538, Metabolic Activation: MOUSE, LIVER, S-9, AROCLOR 1254, Method: STANDARD PLATE
  mutagenic call: inactive; negative
Test System: AMES SALMONELLA TYPHIMURIUM, Strain/Indicator: TA1538, Metabolic Activation: MOUSE, LIVER, S-9, Method: PREINCUBATION
  mutagenic call: inactive; negative
Test System: AMES SALMONELLA TYPHIMURIUM, Strain/Indicator: TA1538, Metabolic Activation: MOUSE, LIVER, S-9, Method: STANDARD PLATE
  mutagenic call: inactive; negative
Test System: AMES SALMONELLA TYPHIMURIUM, Strain/Indicator: TA1538, Metabolic Activation: NONE, Method: PREINCUBATION
  mutagenic call: inactive; negative
Test System: AMES SALMONELLA TYPHIMURIUM, Strain/Indicator: TA1538, Metabolic Activation: NONE, Method: STANDARD PLATE
  mutagenic call: inactive; negative
Test System: AMES SALMONELLA TYPHIMURIUM, Strain/Indicator: TA1538, Metabolic Activation: RAT, LIVER, S-9, AROCLOR 1254, Method: PREINCUBATION
  mutagenic call: inactive; negative
Test System: AMES SALMONELLA TYPHIMURIUM, Strain/Indicator: TA1538, Metabolic Activation: RAT, LIVER, S-9, Method: PREINCUBATION
  mutagenic call: inactive; negative
Test System: AMES SALMONELLA TYPHIMURIUM, Strain/Indicator: TA1538, Metabolic Activation: RAT, LIVER, S-9, Method: STANDARD PLATE
  mutagenic call: inactive; negative
Test System: E. COLI, Strain/Indicator: WP2 UVRA, Metabolic Activation: HAMSTER, LIVER, S-9, AROCLOR 1254, Method: STANDARD PLATE
  mutagenic call: inactive; negative
Test System: E. COLI, Strain/Indicator: WP2 UVRA, Metabolic Activation: HAMSTER, LIVER, S-9, Method: PREINCUBATION
  mutagenic call: inactive; negative
Test System: E. COLI, Strain/Indicator: WP2 UVRA, Metabolic Activation: MOUSE, LIVER, S-9, AROCLOR 1254, Method: STANDARD PLATE
  mutagenic call: inactive; negative
Test System: E. COLI, Strain/Indicator: WP2 UVRA, Metabolic Activation: MOUSE, LIVER, S-9, Method: STANDARD PLATE
  mutagenic call: inactive; negative
Test System: E. COLI, Strain/Indicator: WP2 UVRA, Metabolic Activation: NONE, Method: STANDARD PLATE
  mutagenic call: inactive; negative
Test System: E. COLI, Strain/Indicator: WP2 UVRA, Metabolic Activation: RAT, LIVER, S-9, AROCLOR 1254, Method: PREINCUBATION
  mutagenic call: inactive; negative
Test System: E. COLI, Strain/Indicator: WP2 UVRA, Metabolic Activation: RAT, LIVER, S-9, Method: PREINCUBATION
  mutagenic call: inactive; negative
Test System: E. COLI, Strain/Indicator: WP2 UVRA, Metabolic Activation: RAT, LIVER, S-9, Method: STANDARD PLATE
  mutagenic call: inactive; negative

— PubChem BioAssay AID1259407 (Chemical Carcinogenesis Research Information System (CCRIS), 2018)
